According to PubChem BioAssay AID1259407 (Chemical Carcinogenesis Research Information System (CCRIS), 2018):
Active and inactive are the calls of the source. No rule for the calls is given here.

System: CCRIS mutagenicity, Ames/micronucleus/aberration tests
Test: CCRIS mutagenicity studies

Structure (SMILES): C=CC#N
- mutagenic call (Test System: AMES SALMONELLA TYPHIMURIUM, Strain/Indicator: TA1535, Metabolic Activation: HAMSTER LIVER S-9, AROCLOR 1254 (5, 10, OR 30%), Method: PREINCUBATION): active; positive
- mutagenic call (Test System: AMES SALMONELLA TYPHIMURIUM, Strain/Indicator: TA1535, Metabolic Activation: HAMSTER, LIVER, S-9, AROCLOR 1254 (2.5-20%), Method: STANDARD PLATE): active; positive
- mutagenic call (Test System: AMES SALMONELLA TYPHIMURIUM, Strain/Indicator: TA1535, Metabolic Activation: HAMSTER, LIVER, S-9, AROCLOR 1254 (10%), Method: STANDARD PLATE): active; positive
- mutagenic call (Test System: AMES SALMONELLA TYPHIMURIUM, Strain/Indicator: TA1535, Metabolic Activation: HAMSTER, LIVER, S-9, AROCLOR 1254 (10, 20%), Method: PREINCUBATION): active; positive
- mutagenic call (Test System: AMES SALMONELLA TYPHIMURIUM, Strain/Indicator: TA1535, Metabolic Activation: HAMSTER, LIVER, S-9, AROCLOR 1254 (20%), Method: STANDARD PLATE): active; positive
- mutagenic call (Test System: AMES SALMONELLA TYPHIMURIUM, Strain/Indicator: TA1535, Metabolic Activation: MOUSE, LIVER, S-9, AROCLOR 1254, Method: LIQUID, VAPOR, SPOT): active; positive
- mutagenic call (Test System: AMES SALMONELLA TYPHIMURIUM, Strain/Indicator: TA1535, Metabolic Activation: NONE, Method: PREINCUBATION): inactive; negative
- mutagenic call (Test System: AMES SALMONELLA TYPHIMURIUM, Strain/Indicator: TA1535, Metabolic Activation: NONE, Method: STANDARD PLATE): inactive; negative
- mutagenic call (Test System: AMES SALMONELLA TYPHIMURIUM, Strain/Indicator: TA1535, Metabolic Activation: RAT LIVER S-9, AROCLOR 1254 (5%), Method: PREINCUBATION): active; positive
- mutagenic call (Test System: AMES SALMONELLA TYPHIMURIUM, Strain/Indicator: TA1535, Metabolic Activation: RAT LIVER S-9, AROCLOR 1254 (5,10, OR 30%), Method: PREINCUBATION): active; positive
- mutagenic call (Test System: AMES SALMONELLA TYPHIMURIUM, Strain/Indicator: TA1535, Metabolic Activation: RAT LIVER S-9, AROCLOR 1254 (10% OR 30%), Method: PREINCUBATION): active; positive
- mutagenic call (Test System: AMES SALMONELLA TYPHIMURIUM, Strain/Indicator: TA1535, Metabolic Activation: RAT, LIVER, S-9, 3-METHYLCHOLANTHRENE OR PCB OR PHENOBARBITAL, Method: DESICCATOR): active; positive
- mutagenic call (Test System: AMES SALMONELLA TYPHIMURIUM, Strain/Indicator: TA1535, Metabolic Activation: RAT, LIVER, S-9, AROCLOR 1254, Method: STANDARD PLATE): inactive; negative
- mutagenic call (Test System: AMES SALMONELLA TYPHIMURIUM, Strain/Indicator: TA1537, Metabolic Activation: NONE, Method: STANDARD PLATE): inactive; negative
- mutagenic call (Test System: AMES SALMONELLA TYPHIMURIUM, Strain/Indicator: TA1537, Metabolic Activation: RAT, LIVER, S-9, AROCLOR 1254, Method: STANDARD PLATE): inactive; negative
- mutagenic call (Test System: AMES SALMONELLA TYPHIMURIUM, Strain/Indicator: TA1538, Metabolic Activation: MOUSE, LIVER, S-9, AROCLOR 1254, Method: LIQUID, VAPOR, SPOT): active; positive
- mutagenic call (Test System: AMES SALMONELLA TYPHIMURIUM, Strain/Indicator: TA1538, Metabolic Activation: NONE, Method: STANDARD PLATE): inactive; negative
- mutagenic call (Test System: AMES SALMONELLA TYPHIMURIUM, Strain/Indicator: TA1538, Metabolic Activation: RAT, LIVER, S-9, AROCLOR 1254, Method: STANDARD PLATE): inactive; negative
- mutagenic call (Test System: AMES SALMONELLA TYPHIMURIUM, Strain/Indicator: TA1978, Metabolic Activation: MOUSE, LIVER, S-9, AROCLOR 1254, Method: VAPOR): active; positive
- mutagenic call (Test System: Ames Salmonella typhimurium, Strain/Indicator: YG7108pin3ERb5, Metabolic Activation: None, Method: Standard plate): inactive; negative
- mutagenic call (Test System: CHINESE HAMSTER V-79, Strain/Indicator: V-79 (HGPRT)/8-AZAGUANINE, Metabolic Activation: NONE, Method: REPLATING): inactive; negative
- mutagenic call (Test System: CHINESE HAMSTER V-79, Strain/Indicator: V-79 (HGPRT)/8-AZAGUANINE, Metabolic Activation: RAT, LIVER, S-9, AROCLOR 1254, Method: REPLATING): inactive; negative
- mutagenic call (Test System: E. COLI, Strain/Indicator: WP2, Metabolic Activation: NONE, Method: FLUCTUATION): active; positive
- mutagenic call (Test System: E. COLI, Strain/Indicator: WP2, Metabolic Activation: NONE, Method: STANDARD PLATE): active; positive
- mutagenic call (Test System: E. COLI, Strain/Indicator: WP2 UVRA, Metabolic Activation: NONE, Method: STANDARD PLATE): active; positive
- mutagenic call (Test System: MOUSE LYMPHOMA, Strain/Indicator: L5178Y (TK+/+)/OUABAIN, Metabolic Activation: NONE, Method: SUSPENSION/PLATE): inactive; negative
- mutagenic call (Test System: MOUSE LYMPHOMA, Strain/Indicator: L5178Y (TK+/+)/OUABAIN, Metabolic Activation: RAT LIVER S-9, AROCLOR 1254, Method: SUSPENSION/PLATE): inactive; negative
- mutagenic call (Test System: MOUSE LYMPHOMA, Strain/Indicator: L5178Y (TK+/TK-), Metabolic Activation: RAT, LIVER, S-9, Method: SUSPENSION/PLATE): active; positive
- mutagenic call (Test System: MOUSE LYMPHOMA, Strain/Indicator: L5178Y(TK+/TK-)/TRIFLUOROTHYMIDINE, Metabolic Activation: NONE, Method: SUSPENSION PLATE): active; positive
- mutagenic call (Test System: UDS HUMAN MAMMARY EPITHELIAL CELLS, Strain/Indicator: THY INCORP, Metabolic Activation: NONE, Method: AUTORADIOGRAPHY): inactive; negative
- mutagenic call (Test System: UDS PRIMARY RAT HEPATOCYTES, Strain/Indicator: THY INCORP, Metabolic Activation: NONE, Method: AUTORADIOGRAPHY): inactive; negative
- mutagenic call (Test System: UDS PRIMARY RAT HEPATOCYTES, Strain/Indicator: THY INCORP, Metabolic Activation: NONE, Method: IN VIVO-IN VITRO): inactive; negative
- mutagenic call (Test System: UDS PRIMARY RAT SPERMATOCYTES, Strain/Indicator: THY INCORP, Metabolic Activation: NONE, Method: IN VIVO-IN VITRO): inactive; negative
- mutagenic call (Test System: UDS RAT HEPATOCYTES, Strain/Indicator: THY INCORP, Metabolic Activation: NONE, Method: LIQUID SCINTILLATION COUNTING): active; positive
